Reference: PubChem BioAssay (NCI)
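All cell lines were grown in 96-well plates and treated with compound for 48 hours. Here, GI50 denotes the concentration required for 50% inhibition of growth. TGI: concentration producing complete growth inhibition.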

How the values were obtained:
Assay in all cases: DTP human tumour cell line panel, 48 h
MCF7 breast = tested on: MCF7 breast
SNB-19 CNS = tested on: SNB-19 CNS
SF-539 CNS = tested on: SF-539 CNS
BT-549 breast = tested on: BT-549 breast
HS 578T breast = tested on: HS 578T breast
MALME-3M melanoma = tested on: MALME-3M melanoma
MDA-MB-231 breast = tested on: MDA-MB-231 breast
U251 CNS = tested on: U251 CNS
SK-MEL-5 melanoma = tested on: SK-MEL-5 melanoma
RXF 393 renal = tested on: RXF 393 renal
PC-3 prostate = tested on: PC-3 prostate
HCT-116 colon = tested on: HCT-116 colon
M14 melanoma = tested on: M14 melanoma
SNB-75 CNS = tested on: SNB-75 CNS
SF-295 CNS = tested on: SF-295 CNS
NCI-H226 lung = tested on: NCI-H226 lung
HL-60(TB) leukemia = tested on: HL-60(TB) leukemia
RPMI-8226 leukemia = tested on: RPMI-8226 leukemia
CCRF-CEM leukemia = tested on: CCRF-CEM leukemia
SR leukemia = tested on: SR leukemia
DU-145 prostate = tested on: DU-145 prostate
SK-MEL-2 melanoma = tested on: SK-MEL-2 melanoma
UO-31 renal = tested on: UO-31 renal
EKVX NSCLC = tested on: EKVX NSCLC
SK-MEL-28 melanoma = tested on: SK-MEL-28 melanoma
MDA-MB-435 = tested on: MDA-MB-435
HCC-2998 colon = tested on: HCC-2998 colon
NCI-H23 lung = tested on: NCI-H23 lung
K-562 leukemia = tested on: K-562 leukemia
NCI-H460 lung = tested on: NCI-H460 lung
T-47D breast = tested on: T-47D breast
IGROV1 ovarian = tested on: IGROV1 ovarian
HT29 colon = tested on: HT29 colon
COLO 205 colon = tested on: COLO 205 colon
OVCAR-5 ovarian = tested on: OVCAR-5 ovarian
OVCAR-4 ovarian = tested on: OVCAR-4 ovarian
HOP-92 NSCLC = tested on: HOP-92 NSCLC
HCT-15 colon = tested on: HCT-15 colon
KM12 colon = tested on: KM12 colon
OVCAR-3 ovarian = tested on: OVCAR-3 ovarian
HOP-62 NSCLC = tested on: HOP-62 NSCLC
UACC-257 melanoma = tested on: UACC-257 melanoma
MOLT-4 leukemia = tested on: MOLT-4 leukemia
CAKI-1 renal = tested on: CAKI-1 renal
A549 NSCLC = tested on: A549 NSCLC
NCI-H522 lung = tested on: NCI-H522 lung
A498 renal = tested on: A498 renal
SK-OV-3 ovarian = tested on: SK-OV-3 ovarian
LOX IMVI melanoma = tested on: LOX IMVI melanoma
SF-268 CNS = tested on: SF-268 CNS
UACC-62 melanoma = tested on: UACC-62 melanoma
SW-620 colon = tested on: SW-620 colon
NCI/ADR-RES ovarian = tested on: NCI/ADR-RES ovarian
TK-10 renal = tested on: TK-10 renal
ACHN renal = tested on: ACHN renal
786-0 renal = tested on: 786-0 renal
OVCAR-8 ovarian = tested on: OVCAR-8 ovarian

Cc1cc(C)nc(SC2=C(Nc3cc(Cl)ccc3O)C(=O)N(Cc3ccccc3)C2=O)n1
GI50 (MCF7 breast): 20.5 µM
TGI (MCF7 breast): 109 µM
GI50 (SNB-19 CNS): > 160 µM
TGI (SNB-19 CNS): > 160 µM
GI50 (SF-539 CNS): > 160 µM
TGI (SF-539 CNS): > 160 µM
GI50 (BT-549 breast): 63 µM
TGI (BT-549 breast): > 160 µM
GI50 (HS 578T breast): 28.1 µM
TGI (HS 578T breast): 87.5 µM
GI50 (MALME-3M melanoma): 39.4 µM
TGI (MALME-3M melanoma): 99.7 µM
GI50 (MDA-MB-231 breast): 16.8 µM
TGI (MDA-MB-231 breast): 48 µM
GI50 (U251 CNS): 38.6 µM
TGI (U251 CNS): > 160 µM
GI50 (SK-MEL-5 melanoma): 38.9 µM
TGI (SK-MEL-5 melanoma): > 160 µM
GI50 (RXF 393 renal): 4.03 µM
TGI (RXF 393 renal): 17.2 µM
GI50 (PC-3 prostate): 19.9 µM
TGI (PC-3 prostate): 86.4 µM
GI50 (HCT-116 colon): 31.4 µM
TGI (HCT-116 colon): > 160 µM
GI50 (M14 melanoma): 48.4 µM
TGI (M14 melanoma): > 160 µM
GI50 (SNB-75 CNS): 21.8 µM
TGI (SNB-75 CNS): 104 µM
GI50 (SF-295 CNS): 36.8 µM
TGI (SF-295 CNS): > 160 µM
GI50 (NCI-H226 lung): 1.78 µM
TGI (NCI-H226 lung): 47.7 µM
GI50 (HL-60(TB) leukemia): 33.3 µM
TGI (HL-60(TB) leukemia): 70 µM
GI50 (RPMI-8226 leukemia): 3.57 µM
TGI (RPMI-8226 leukemia): 25.7 µM
GI50 (CCRF-CEM leukemia): 7.38 µM
TGI (CCRF-CEM leukemia): 124 µM
GI50 (SR leukemia): 18.6 µM
TGI (SR leukemia): 70.6 µM
GI50 (DU-145 prostate): 39 µM
TGI (DU-145 prostate): 108 µM
GI50 (SK-MEL-2 melanoma): 49.5 µM
TGI (SK-MEL-2 melanoma): > 160 µM
GI50 (UO-31 renal): 80.7 µM
TGI (UO-31 renal): > 160 µM
GI50 (EKVX NSCLC): 57.7 µM
TGI (EKVX NSCLC): > 160 µM
GI50 (SK-MEL-28 melanoma): 42.3 µM
TGI (SK-MEL-28 melanoma): 148 µM
GI50 (MDA-MB-435): 62.2 µM
TGI (MDA-MB-435): > 160 µM
GI50 (HCC-2998 colon): > 160 µM
TGI (HCC-2998 colon): > 160 µM
GI50 (NCI-H23 lung): 113 µM
TGI (NCI-H23 lung): > 160 µM
GI50 (K-562 leukemia): 5.53 µM
TGI (K-562 leukemia): > 160 µM
GI50 (NCI-H460 lung): 56.6 µM
TGI (NCI-H460 lung): > 160 µM
GI50 (T-47D breast): 15 µM
TGI (T-47D breast): 63.2 µM
GI50 (IGROV1 ovarian): 25.3 µM
TGI (IGROV1 ovarian): 88.6 µM
GI50 (HT29 colon): 33.8 µM
TGI (HT29 colon): 65 µM
GI50 (COLO 205 colon): 36.4 µM
TGI (COLO 205 colon): 90.7 µM
GI50 (OVCAR-5 ovarian): > 160 µM
TGI (OVCAR-5 ovarian): > 160 µM
GI50 (OVCAR-4 ovarian): 34 µM
TGI (OVCAR-4 ovarian): > 160 µM
GI50 (HOP-92 NSCLC): 21.9 µM
TGI (HOP-92 NSCLC): 68.5 µM
GI50 (HCT-15 colon): 23.5 µM
TGI (HCT-15 colon): 78.4 µM
GI50 (KM12 colon): 27.4 µM
TGI (KM12 colon): 73.8 µM
GI50 (OVCAR-3 ovarian): 18.8 µM
TGI (OVCAR-3 ovarian): 53.2 µM
GI50 (HOP-62 NSCLC): 27.6 µM
TGI (HOP-62 NSCLC): 101 µM
GI50 (UACC-257 melanoma): 32.5 µM
TGI (UACC-257 melanoma): 102 µM
GI50 (MOLT-4 leukemia): 6.14 µM
TGI (MOLT-4 leukemia): 31.4 µM
GI50 (CAKI-1 renal): > 160 µM
TGI (CAKI-1 renal): > 160 µM
GI50 (A549 NSCLC): 30.7 µM
TGI (A549 NSCLC): > 160 µM
GI50 (NCI-H522 lung): 17.4 µM
TGI (NCI-H522 lung): > 160 µM
GI50 (A498 renal): > 160 µM
TGI (A498 renal): > 160 µM
GI50 (SK-OV-3 ovarian): > 160 µM
TGI (SK-OV-3 ovarian): > 160 µM
GI50 (LOX IMVI melanoma): 27.2 µM
TGI (LOX IMVI melanoma): 89.4 µM
GI50 (SF-268 CNS): 61.2 µM
TGI (SF-268 CNS): > 160 µM
GI50 (UACC-62 melanoma): 16.2 µM
TGI (UACC-62 melanoma): 41.8 µM
GI50 (SW-620 colon): 53 µM
TGI (SW-620 colon): > 160 µM
GI50 (NCI/ADR-RES ovarian): > 160 µM
TGI (NCI/ADR-RES ovarian): > 160 µM
GI50 (TK-10 renal): 53.9 µM
TGI (TK-10 renal): > 160 µM
GI50 (ACHN renal): 43.5 µM
TGI (ACHN renal): > 160 µM
GI50 (786-0 renal): 14.7 µM
TGI (786-0 renal): 85.2 µM
GI50 (OVCAR-8 ovarian): 27 µM
TGI (OVCAR-8 ovarian): 110 µM
